Columns and labels:
Type in all cases: cell-based
[1] = tested on: U937 cells (human monocytic cell line); test: Pam2CSK4-induced TNF-α secretion inhibition in PMA-differentiated U937 cells; conditions: U-937, U937 cells differentiated with PMA, read-out: TNF-α production inhibition grade (IC50)
Method in brief: (§1)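 Inhibition is given as IC50 (μM) in A-D bands, using distinct thresholds for TNF-α and for IL-1β. Secretion followed Pam2CSK4 stimulation (TNF-α) or BzATP stimulation (IL-1β) of compound-pretreated, PMA-differentiated U937 macrophages.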

[2] = tested on: J774A.1 (Mouse BALB/c monocyte macrophage cell line) cells; test: LPS+ATP-induced IL-1β secretion inhibition in J774A.1 cells; conditions: J774.A1, 1 μM compound, graded compared to taurodeoxycholic acid (positive control), read-out: IL-1β production inhibition grade
Method in brief: (§2)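 Grades (A >100%, B 50–100%, C 20–50%, D <20%) express cytokine suppression by 1 μM compound relative to taurodeoxycholic acid. LPS-induced TNF-α and LPS+ATP-induced IL-1β secretion were measured in murine J774A.1 macrophage cells.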

[3] = tested on: U937 cells (human monocytic cell line); test: BzATP-induced IL-1β secretion inhibition in PMA-differentiated U937 cells; conditions: U-937, U937 cells differentiated with PMA, read-out: IL-1β production inhibition grade (IC50)
Method in brief: as §1

[4] = tested on: J774A.1 (Mouse BALB/c monocyte macrophage cell line) cells; test: LPS-induced TNF-α secretion inhibition in J774A.1 cells; conditions: J774.A1, 1 μM compound, graded compared to taurodeoxycholic acid (positive control), read-out: TNF-α production inhibition grade
Method in brief: as §2

| SMILES | IC50 [1] [µM] | inhibition at 1 µM [2] [%] | IC50 [3] [µM] | inhibition at 1 µM [4] [%] |
| --- | --- | --- | --- | --- |
| C[C@H](CCC(=O)N1CCC[C@H]1CS(=O)(=O)O)[C@H]1CC[C@H]2[C@@H]3[C@H](O)C[C@@H]4C[C@H](O)CC[C@]4(C)[C@H]3C[C@H](O)[C@]12C [NC20021] | 1 to 2 | < 20 | 0.05 to 0.1 | < 20 |
| C[C@H](CCC(=O)NC1(CS(=O)(=O)O)CC1)[C@H]1CC[C@H]2[C@@H]3CC[C@@H]4C[C@H](O)CC[C@]4(C)[C@H]3CC[C@]12C [NC10088] | < 0.5 | < 20 | ≥ 0.2 | 20 to 50 |
| CC[C@H]1[C@@H](O)[C@@H]2[C@H](C[C@H](O)[C@]3(C)[C@@H]([C@H](C)CCC(=O)N(CCS(=O)(=O)O)C4CCOCC4)CC[C@@H]23)[C@@]2(C)CC[C@@H](O)C[C@@H]12 [NC50008] | 0.5 to 1 | > 100 | < 0.05 | < 20 |
| CC[C@H]1[C@@H](O)[C@@H]2[C@H](C[C@H](O)[C@]3(C)[C@@H]([C@H](C)CCC(=O)N[C@@H](CO)CS(=O)(=O)O)CC[C@@H]23)[C@@]2(C)CC[C@@H](O)C[C@@H]12 [NC50024] | ≥ 2 | 20 to 50 | ≥ 0.2 | < 20 |
| C[C@H](CCC(=O)N[C@H]1CCCC[C@H]1S(=O)(=O)O)[C@H]1CC[C@H]2[C@@H]3CC[C@@H]4CC(=O)CC[C@]4(C)[C@H]3CC[C@]12C [NC30027] | 0.5 to 1 | > 100 | < 0.05 | > 100 |
| C[C@H](CCC(=O)N(CCS(=O)(=O)O)c1ccccc1)[C@H]1CC[C@H]2[C@@H]3CC[C@@H]4C[C@H](O)CC[C@]4(C)[C@H]3C[C@H](O)[C@]12C [NC10052] | 1 to 2 | 50 to 100 | 0.05 to 0.1 | 50 to 100 |
| CC[C@H]1[C@@H](O)[C@@H]2[C@H](CC[C@]3(C)[C@@H]([C@H](C)CCC(=O)N[C@@H](Cc4ccccc4)CS(=O)(=O)O)CC[C@@H]23)[C@@]2(C)CC[C@@H](O)C[C@@H]12 [NC40014] | 0.5 to 1 | > 100 | < 0.05 | < 20 |
| CC[C@H]1[C@@H](O)[C@@H]2[C@H](CC[C@]3(C)[C@@H]([C@H](C)CCC(=O)N[C@@H](CC(C)C)CS(=O)(=O)O)CC[C@@H]23)[C@@]2(C)CC[C@@H](O)C[C@@H]12 [NC40030] | 1 to 2 | < 20 | ≥ 0.2 | < 20 |
| C[C@H](CCC(=O)N1CCC[C@@H]1CS(=O)(=O)O)[C@H]1CC[C@H]2[C@@H]3CC[C@@H]4CC(=O)CC[C@]4(C)[C@H]3CC[C@]12C [NC30020] | ≥ 2 | 20 to 50 | ≥ 0.2 | < 20 |
| C[C@H](CCC(=O)N[C@@H]1CCCC[C@@H]1S(=O)(=O)O)[C@H]1CC[C@H]2[C@@H]3[C@H](O)C[C@@H]4C[C@H](O)CC[C@]4(C)[C@H]3C[C@H](O)[C@]12C [NC20026] | 1 to 2 | 50 to 100 | 0.1 to 0.2 | < 20 |
| C[C@H](CCC(=O)N(CCS(=O)(=O)O)C1CCOCC1)[C@H]1CC[C@H]2[C@@H]3CC[C@@H]4C[C@H](O)CC[C@]4(C)[C@H]3CC[C@]12C [NC10059] | 1 to 2 | > 100 | < 0.05 | < 20 |
| C[C@H](CCC(=O)N[C@@H](Cc1ccccc1)CS(=O)(=O)O)[C@H]1CC[C@H]2[C@@H]3CC[C@@H]4C[C@H](O)CC[C@]4(C)[C@H]3CC[C@]12C [NC10065] | 1 to 2 | > 100 | 0.1 to 0.2 | < 20 |
| C[C@H](CCC(=O)N1CC[C@@H](S(=O)(=O)O)C1)[C@H]1CC[C@H]2[C@@H]3CC[C@@H]4C[C@H](O)CC[C@]4(C)[C@H]3C[C@H](O)[C@]12C [NC10049] | < 0.5 | > 100 | < 0.05 | < 20 |
| C[C@H](CCC(=O)N1CC[C@@H](S(=O)(=O)O)C1)[C@H]1CC[C@H]2[C@@H]3CC[C@@H]4CC(=O)CC[C@]4(C)[C@H]3CC[C@]12C [NC30034] | 0.5 to 1 | < 20 | ≥ 0.2 | < 20 |
| CC[C@H]1[C@@H](O)[C@@H]2[C@H](CC[C@]3(C)[C@@H]([C@H](C)CCC(=O)N4CCC(S(=O)(=O)O)CC4)CC[C@@H]23)[C@@]2(C)CC[C@@H](O)C[C@@H]12 [NC40011] | 0.5 to 1 | 20 to 50 | ≥ 0.2 | < 20 |
| C[C@H](CCC(=O)N1CCC[C@H]1CS(=O)(=O)O)[C@H]1CC[C@H]2[C@@H]3CC[C@@H]4C[C@H](O)CC[C@]4(C)[C@H]3CC[C@]12C [NC10077] | < 0.5 | > 100 | < 0.05 | < 20 |
| C[C@H](CCC(=O)N1CCN(CCS(=O)(=O)O)CC1)[C@H]1CC[C@H]2[C@@H]3CC[C@@H]4C[C@H](O)CC[C@]4(C)[C@H]3C[C@H](O)[C@]12C [NC10010] | < 0.5 | > 100 | < 0.05 | > 100 |
| C[C@H](CCC(=O)N[C@H](CO)CS(=O)(=O)O)[C@H]1CC[C@H]2[C@@H]3[C@H](O)C[C@@H]4C[C@H](O)CC[C@]4(C)[C@H]3C[C@H](O)[C@]12C [NC20025] | ≥ 2 | < 20 | ≥ 0.2 | < 20 |
| C[C@H](CCC(=O)NC(C)(C)CS(=O)(=O)O)[C@H]1CC[C@H]2[C@@H]3CC[C@@H]4CC(=O)CC[C@]4(C)[C@H]3CC[C@]12C [NC30013] | 0.5 to 1 | 50 to 100 | ≥ 0.2 | 50 to 100 |
| C[C@H](CCC(=O)N(C)CCS(=O)(=O)O)[C@H]1CC[C@H]2[C@@H]3[C@H](O)C[C@@H]4C[C@H](O)CC[C@]4(C)[C@H]3C[C@H](O)[C@]12C [NC20004] | 0.5 to 1 | > 100 | < 0.05 | < 20 |
| C[C@H](CCC(=O)N[C@H](Cc1ccccc1)CS(=O)(=O)O)[C@H]1CC[C@H]2[C@@H]3CC[C@@H]4C[C@H](O)CC[C@]4(C)[C@H]3CC[C@]12C [NC10071] | < 0.5 | > 100 | < 0.05 | < 20 |
| C[C@H](CCC(=O)NC(C)(C)CS(=O)(=O)O)[C@H]1CC[C@H]2[C@@H]3CC[C@@H]4C[C@H](O)CC[C@]4(C)[C@H]3C[C@H](O)[C@]12C [NC10029] | ≥ 2 | > 100 | 0.05 to 0.1 | < 20 |
| CC(C)[C@@H](CS(=O)(=O)O)NC(=O)CC[C@@H](C)[C@H]1CC[C@H]2[C@@H]3[C@H](O)C[C@@H]4C[C@H](O)CC[C@]4(C)[C@H]3C[C@H](O)[C@]12C [NC20016] | 1 to 2 | > 100 | < 0.05 | < 20 |
